Measurements published in patent publication US20030073850A1, “4-Imidazole derivatives of benzyl and restricted benzyl sulfonamides, sulfamides, ureas, carbamates, and amides and their use” (priority 1998, published 2003).

Experiments:
[1] = tested on: anesthetized dogs; assay: Urethral pressure profile in anesthetized dogs; format: in vivo, dog; details: increasing iv doses, FIG. 1
Protocol: Dogs instrumented and anesthetized as decribed above were placed in left lateral recumbency and a dual pressure sensor catheter (SPC-771, Millar Instruments, Houston, Tex.) was inserted into the urethra and advanced into the bladder. The proximal pressure sensor was interfaced to a M12 computerized data acquisition system for the measurement of lower urinary tract pressures. At a resting intravesical pressure of approximately 5 cm of H2O, urethral pressure was measured from the sensor as the catheter was withdrawn using a modified syringe pump (Model 22, Harvard Apparatus, South Natick, Mass.) at its maximal rate of 0.83 mm/sec. Measurement from the proximal sensor allowed easy reinsertion as the distal 5 cm of the catheter remains in the urethra after the total profile has been obtained. Three resting urethral pressure profiles were obtained at 5 minute intervals before dosing, then a single profile was initiated 30 sec after each increasing iv dose during the time corresponding to the maximum arterial pressure effects of that dose. The increase in arterial pressure seen after each agonist dose was allowed to return to baseline before the next dose was given.

[2] = biological target: T1, α1b (hamster receptor expressed in mouse fibroblasts) (Mesocricetus auratus, UniProt P18841); assay: Radioligand binding, [3H]-prazosin, α1b
T1 construct: expressed in transfected cells; host or cells: mouse fibroblasts
T1 sequence (P18841 1-515): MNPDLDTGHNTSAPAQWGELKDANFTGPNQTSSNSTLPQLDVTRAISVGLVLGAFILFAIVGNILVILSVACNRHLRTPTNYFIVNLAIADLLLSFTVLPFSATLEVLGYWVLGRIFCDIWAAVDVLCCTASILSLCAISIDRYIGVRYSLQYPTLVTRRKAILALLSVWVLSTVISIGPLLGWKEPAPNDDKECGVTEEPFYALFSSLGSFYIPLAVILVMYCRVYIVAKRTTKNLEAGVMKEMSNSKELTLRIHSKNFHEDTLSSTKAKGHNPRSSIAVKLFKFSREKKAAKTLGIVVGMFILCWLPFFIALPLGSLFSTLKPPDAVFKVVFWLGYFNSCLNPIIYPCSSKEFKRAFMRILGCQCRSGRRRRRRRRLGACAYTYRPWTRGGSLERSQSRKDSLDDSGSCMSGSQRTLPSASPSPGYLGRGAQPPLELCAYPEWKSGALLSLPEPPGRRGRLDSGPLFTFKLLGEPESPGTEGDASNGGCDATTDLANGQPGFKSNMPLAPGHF
Procedure, shortened: (§1)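 [3H]-prazosin radioligand displacement; α1A from rat submaxillary gland tissue, α1b hamster and α1d rat receptors each expressed in mouse fibroblasts.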

[3] = biological target: T2, α1d (rat receptor expressed in mouse fibroblasts) (Rattus norvegicus, UniProt P23944); assay: Radioligand binding, [3H]-prazosin, α1d
T2 construct: expressed in transfected cells; host or cells: mouse fibroblasts
T2 sequence (P23944 1-561): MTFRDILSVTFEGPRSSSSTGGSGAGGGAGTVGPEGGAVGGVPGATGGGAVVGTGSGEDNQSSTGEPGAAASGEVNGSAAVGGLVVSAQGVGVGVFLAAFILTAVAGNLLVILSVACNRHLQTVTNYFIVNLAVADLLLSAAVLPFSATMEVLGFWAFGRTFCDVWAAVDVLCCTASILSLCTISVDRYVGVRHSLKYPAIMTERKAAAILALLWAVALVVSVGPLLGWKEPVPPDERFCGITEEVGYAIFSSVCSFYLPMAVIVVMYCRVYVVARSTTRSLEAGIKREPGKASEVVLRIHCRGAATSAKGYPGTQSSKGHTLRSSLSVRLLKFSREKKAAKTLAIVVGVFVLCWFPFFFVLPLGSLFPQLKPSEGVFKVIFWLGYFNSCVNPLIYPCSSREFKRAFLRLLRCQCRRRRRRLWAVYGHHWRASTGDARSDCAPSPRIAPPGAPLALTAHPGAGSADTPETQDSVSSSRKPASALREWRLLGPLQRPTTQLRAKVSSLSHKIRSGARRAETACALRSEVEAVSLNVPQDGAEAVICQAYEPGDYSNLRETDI
Procedure, shortened: as §1

[4] = biological target: T3, α1B (rat spleen) (Rattus norvegicus, UniProt P15823); assay: Agonist tissue response, contraction of rat spleen; format: biochemical; details: read-out: Agonist Tissue Response (pD2) α1B (rat spleen) (converted)
T3 construct: α1B (rat spleen) and α1D (rat aorta) receptors; from tissue; host or cells: rat spleen
T3 sequence (P15823 1-515): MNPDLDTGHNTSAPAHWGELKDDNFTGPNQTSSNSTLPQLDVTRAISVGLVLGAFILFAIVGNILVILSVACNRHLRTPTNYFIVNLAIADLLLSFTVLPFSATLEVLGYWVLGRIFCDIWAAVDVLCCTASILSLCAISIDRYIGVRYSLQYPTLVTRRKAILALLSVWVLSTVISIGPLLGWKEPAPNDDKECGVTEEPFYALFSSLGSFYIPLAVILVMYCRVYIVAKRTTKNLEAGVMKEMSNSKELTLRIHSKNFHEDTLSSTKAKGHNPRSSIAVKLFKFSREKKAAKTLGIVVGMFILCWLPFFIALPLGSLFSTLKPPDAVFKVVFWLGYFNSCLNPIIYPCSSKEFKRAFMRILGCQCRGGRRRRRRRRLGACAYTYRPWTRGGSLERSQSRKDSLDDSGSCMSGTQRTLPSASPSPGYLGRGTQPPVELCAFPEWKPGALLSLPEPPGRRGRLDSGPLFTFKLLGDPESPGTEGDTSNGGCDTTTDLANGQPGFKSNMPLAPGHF

SMILES | melting point [°C] | urethral pressure profile [1] | Ki [2] [nM] | Ki [3] [nM] | EC50 [4] [nM]
CS(=O)(=O)Nc1cccc2c1CCCC2c1c[nH]cn1.Cl (centres unmarked) [Example 8, N-[5-(1H-imidazol-4-yl)-5,6,7,8-tetrahydro-1-naphthalenyl]methanesulfonamide, Hydrochloride] | 113 to 114 | corresponding increases in the urethral pressure | – | – | –
CCS(=O)(=O)Nc1cccc(C(=C2CCCCC2)c2c[nH]cn2)c1 [Example 56] | – | – | 16.1 | 2.46 | 186000
